Data published in ChEMBL document CHEMBL1135648, “Synthesis and evaluation of no-carrier-added 8-cyclopentyl-3-(3-[(18)F]fluoropropyl)-1-propylxanthine ([(18)F]CPFPX): a potent and selective A(1)-adenosine receptor antagonist for in vivo imaging” (J Med Chem, 2002).

Experiments:
Mus musculus [1] = assay: In vivo biodistribution in NMRI (Naval Medical Research Institute) mice intestine at the dose of 0.15-0.2 nmol at 20 min; type: ADME, organism-based
Mus musculus [2] = assay: In vivo biodistribution in NMRI (Naval Medical Research Institute) mice kidney at the dose of 0.15-0.2 nmol at 60 min; type: ADME, organism-based; details: 1 h
Mus musculus [3] = assay: In vivo biodistribution in NMRI (Naval Medical Research Institute) mice bone at the dose of 0.15-0.2 nmol at 20 min; type: ADME, organism-based, Bone element
Mus musculus [4] = assay: In vivo biodistribution in NMRI (Naval Medical Research Institute) mice liver at the dose of 0.15-0.2 nmol at 60 min; type: ADME, organism-based; details: 1 h
Mus musculus [5] = assay: In vivo biodistribution in NMRI (Naval Medical Research Institute) mice kidney at the dose of 0.15-0.2 nmol at 2 min; type: ADME, organism-based
Mus musculus [6] = assay: In vivo biodistribution in NMRI (Naval Medical Research Institute) mice heart at the dose of 0.15-0.2 nmol at 2 min; type: ADME, organism-based
Mus musculus [7] = assay: In vivo biodistribution in NMRI (Naval Medical Research Institute) mice lung at the dose of 0.15-0.2 nmol at 10 min; type: ADME, organism-based
Mus musculus [8] = assay: In vivo biodistribution in NMRI (Naval Medical Research Institute) mice splee nat the dose of 0.15-0.2 nmol at 10 min; type: ADME, organism-based
Mus musculus [9] = assay: In vivo biodistribution in NMRI (Naval Medical Research Institute) mice lung at the dose of 0.15-0.2 nmol at 40 min; type: ADME, organism-based
Mus musculus [10] = assay: In vivo biodistribution in NMRI (Naval Medical Research Institute) mice lung at the dose of 0.15-0.2 nmol at 5 min; type: ADME, organism-based
Mus musculus [11] = assay: In vivo biodistribution in NMRI (Naval Medical Research Institute) mice liver at the dose of 0.15-0.2 nmol at 20 min; type: ADME, organism-based
Mus musculus [12] = assay: In vivo biodistribution in NMRI (Naval Medical Research Institute) mice spleen at the dose of 0.15-0.2 nmol at 5 min; type: ADME, organism-based
Mus musculus [13] = assay: In vivo biodistribution in NMRI (Naval Medical Research Institute) mice bone at the dose of 0.15-0.2 nmol at 40 min; type: ADME, organism-based, Bone element
Mus musculus [14] = assay: In vivo biodistribution in NMRI (Naval Medical Research Institute) mice intestine at the dose of 0.15-0.2 nmol at 5 min; type: ADME, organism-based
Mus musculus [15] = assay: In vivo biodistribution in NMRI (Naval Medical Research Institute) mice brain at the dose of 0.15-0.2 nmol at 40 min; type: ADME, organism-based
Mus musculus [16] = assay: In vivo biodistribution in NMRI (Naval Medical Research Institute) mice spleen at the dose of 0.15-0.2 nmol at 60 min; type: ADME, organism-based; details: 1 h
Mus musculus [17] = assay: In vivo biodistribution in NMRI (Naval Medical Research Institute) mice intestine at the dose of 0.15-0.2 nmol at 2 min; type: ADME, organism-based
Mus musculus [18] = assay: In vivo biodistribution in NMRI (Naval Medical Research Institute) mice blood at the dose of 0.15-0.2 nmol at 10 min; type: ADME, organism-based
Mus musculus [19] = assay: In vivo biodistribution in NMRI (Naval Medical Research Institute) mice lung at the dose of 0.15-0.2 nmol at 20 min; type: ADME, organism-based
Mus musculus [20] = assay: In vivo biodistribution in NMRI (Naval Medical Research Institute) mice intestine at the dose of 0.15-0.2 nmol at 10 min; type: ADME, organism-based
Mus musculus [21] = assay: In vivo biodistribution in NMRI (Naval Medical Research Institute) mice blood at the dose of 0.15-0.2 n mol at 2 min; type: ADME, organism-based
Mus musculus [22] = assay: In vivo biodistribution in NMRI (Naval Medical Research Institute) mice bone at the dose of 0.15-0.2 nmol at 2 min; type: ADME, organism-based, Bone element
Mus musculus [23] = assay: In vivo biodistribution in NMRI (Naval Medical Research Institute) mice pancreas at the dose of 0.15-0.2 nmol at 60 min; type: ADME, organism-based; details: 1 h
Mus musculus [24] = assay: In vivo biodistribution in NMRI (Naval Medical Research Institute) mice pancreas at the dose of 0.15-0.2 nmol at 10 min; type: ADME, organism-based
Mus musculus [25] = assay: In vivo biodistribution in NMRI (Naval Medical Research Institute) mice heart at the dose of 0.15-0.2 nmol at 60 min; type: ADME, organism-based; details: 1 h
Mus musculus [26] = assay: In vivo biodistribution in NMRI (Naval Medical Research Institute) mice pnacreas at the dose of 0.15-0.2 nmol at 20 min; type: ADME, organism-based
Mus musculus [27] = assay: In vivo biodistribution in NMRI (Naval Medical Research Institute) mice liver at the dose of 0.15-0.2 nmol at 2 min; type: ADME, organism-based
Adenosine receptor A1 = target: T1, Adenosine receptor A1 (Rattus norvegicus, UniProt P25099); assay: In vitro binding affinity at rat Adenosine A1 receptor
T1 sequence (P25099 whole entry): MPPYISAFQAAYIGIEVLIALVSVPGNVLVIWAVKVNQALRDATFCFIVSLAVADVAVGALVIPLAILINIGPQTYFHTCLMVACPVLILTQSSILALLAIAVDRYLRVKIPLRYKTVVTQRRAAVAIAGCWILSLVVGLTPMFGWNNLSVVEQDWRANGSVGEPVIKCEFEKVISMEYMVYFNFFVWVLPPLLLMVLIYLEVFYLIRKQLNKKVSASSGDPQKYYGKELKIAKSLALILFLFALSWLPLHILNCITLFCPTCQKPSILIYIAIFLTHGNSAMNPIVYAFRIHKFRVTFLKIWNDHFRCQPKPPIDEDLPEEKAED

Mus musculus [28] = assay: In vivo biodistribution in NMRI (Naval Medical Research Institute) mice intestine at the dose of 0.15-0.2 nmol at 60 min; type: ADME, organism-based; details: 1 h
Mus musculus [29] = assay: In vivo biodistribution in NMRI (Naval Medical Research Institute) mice heart at the dose of 0.15-0.2 nmol at 10 min; type: ADME, organism-based
Mus musculus [30] = assay: In vivo biodistribution in NMRI (Naval Medical Research Institute) mice spleen at the dose of 0.15-0.2 nmol at 20 min; type: ADME, organism-based
Adenosine receptor A2a = Adenosine receptor A2a (Rattus norvegicus, UniProt P30543); assay: In vitro binding affinity at Adenosine A2A receptor of rat cortex
Adenosine receptor A2a, sequence (P30543 whole entry): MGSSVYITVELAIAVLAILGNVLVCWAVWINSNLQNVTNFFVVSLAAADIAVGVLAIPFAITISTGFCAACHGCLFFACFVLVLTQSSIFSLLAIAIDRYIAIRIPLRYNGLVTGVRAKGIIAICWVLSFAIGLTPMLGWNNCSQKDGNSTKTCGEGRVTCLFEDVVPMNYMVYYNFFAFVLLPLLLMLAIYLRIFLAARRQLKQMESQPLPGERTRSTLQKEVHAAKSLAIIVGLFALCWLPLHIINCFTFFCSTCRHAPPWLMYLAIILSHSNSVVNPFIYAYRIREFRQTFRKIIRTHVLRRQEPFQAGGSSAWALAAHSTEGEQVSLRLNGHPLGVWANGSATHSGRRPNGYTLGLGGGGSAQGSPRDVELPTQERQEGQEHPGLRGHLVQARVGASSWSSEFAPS

Work on `CCCn1c(=O)c2nc(C3CCCC3)[nH]c2n(CCC[18F])c1=O` yielded an ID/g (Mus musculus [1]) of 3.51%, an ID/g (Mus musculus [2]) of 2.63% and an ID/g (Mus musculus [3]) of 2.02%. The ID/g (Mus musculus [4]) was 4.36%, the ID/g (Mus musculus [5]) was 4.68% and the ID/g (Mus musculus [6]) was 4.64%. For the same compound, the ID/g (Mus musculus [7]) was 5.79%, the ID/g (Mus musculus [8]) was 1.77% and the ID/g (Mus musculus [9]) was 5.7%. For the same compound, the ID/g (Mus musculus [10]) was 4.22%, the ID/g (Mus musculus [11]) was 9.93% and the ID/g (Mus musculus [12]) was 1.56%. For the same compound, the ID/g (Mus musculus [13]) was 2.18%, the ID/g (Mus musculus [14]) was 2.21% and the ID/g (Mus musculus [15]) was 2.52%. For the same compound, the ID/g (Mus musculus [16]) was 0.84%, the ID/g (Mus musculus [17]) was 2.07% and the ID/g (Mus musculus [18]) was 5.21%. It also gave an ID/g (Mus musculus [19]) of 5.75%, an ID/g (Mus musculus [20]) of 3.08% and an ID/g (Mus musculus [21]) of 11.2%. It also gave an ID/g (Mus musculus [22]) of 0.37%, an ID/g (Mus musculus [23]) of 1.03% and an ID/g (Mus musculus [24]) of 4.29%. It also gave an ID/g (Mus musculus [25]) of 1.63%, an ID/g (Mus musculus [26]) of 4.58% and an ID/g (Mus musculus [27]) of 9.34%. The Kd (Adenosine receptor A1) was 0.63 nM, the ID/g (Mus musculus [28]) was 9.13% and the ID/g (Mus musculus [29]) was 3.83%. The ID/g (Mus musculus [30]) was 1.78% and the Ki (Adenosine receptor A2a) was 812 nM.
